Laboratory results: PMC8208785, “Therapeutic efficacy of novel memantine nitrate MN‐08 in animal models of Alzheimer’s disease” (Aging Cell, 2021)
Like-named read-outs stand apart in the source and are kept apart here.

What was measured:
3×Tg‐AD mice = experiment: behavioral tests (SDA, NOR, MWM), treatment study in 3×Tg-AD mice; assay type: in vivo; conditions: 3, 6, and 12 mg/kg, vs vehicle
Description: Triple transgenic 3×Tg‐AD mice were acquired from Jackson Laboratory and fostered in the Shenzhen Center for Disease Control and Prevention (Shenzhen, China). Eight‐month‐old 3×Tg‐AD mice were categorized into six groups: (1) 3×Tg‐AD +Vehicle group; (2) 3×Tg‐AD +MN‐08 (3 mg/kg) group; (3) 3×Tg‐AD +MN‐08 (6 mg/kg) group; (4) 3×Tg‐AD +MN‐08 (12 mg/kg) group; (5) 3×Tg‐AD +Memantine (Mem, 5 mg/kg) group; (6) 3×Tg‐AD +Donepezil (Done, 1.3 mg/kg, once daily) group; (7) Eight‐month‐old B6129SF2/J mice as a control group. MN‐08 and memantine were given twice daily (Done, once daily) by gastric gavage for 4 months from 8 months of age.
(§1) The step-down avoidance (SDA) test was performed as previously described (Zhou et al., 2019). During the training phase, mice were singly placed on a metal floor with electrical stimulation (35 V) for 5 min. After 24 hours, the mouse was positioned on a wooden platform, while the metal floor at the bottom delivered an electrical shock (35 V) for another 5 min. The time for the animal to step down from the wooden platform were recorded as the step-down latency to evaluate retention memory.
(§2) Hippocampus-dependent spatial memory was determined by the Morris water maze (MWM) test according to the protocol described in a previous study (Jiao et al., 2015). The MWM test includes a platform training phase and a probe trial phase. An escape platform was placed in a fixed spatial location. During the training phase, each animal was placed at one of four different starting positions and tested four times a day with an interval of approximately 30 min. The animal in the water was immediately removed when it swam to the escape platform within 60 s. […] After the training phase, the probe trial was performed on the sixth day when the platform was removed. The animal was placed in the same starting position in the pool and allowed to move freely for 2 min. The animal swimming track was recorded and analyzed with a digital camera.
(§3) The novel object recognition test was performed to assess non-spatial working memory according to previously published protocols (Choi et al., 2011). Firstly, each animal was sequentially placed into a square box (50 × 50 × 50 cm, length × width × height) without any objects for 10 min per day for 2 continuous days to habituate to the environment. Then, two identical objects were placed parallel near one wall of the square box. Animals were placed singly in the box and allowed to explore the objects for 10 min. […] The time each animal took to examine the familiar object and novel object was recorded by digital camera. The discrimination index was calculated according to the following expression: (novel object (s) - familiar object (s))/ (novel object (s) + familiar object (s)). […]

APP/PS1 mice = experiment: behavioral tests (SDA, NOR, MWM), prevention study in APP/PS1 mice; assay type: in vivo; conditions: 6 mg/kg gastric gavage, ages 2 to 8 months
Description: APP/PS1 transgenic mice were purchased from Jackson Laboratory and reproduced in the Shenzhen Center for Disease Control and Prevention (Shenzhen, China). Two‐month‐old APP/PS1 mice were divided into four groups: (1) APP/PS1 + Vehicle group; (2) APP/PS1 + MN‐08 (6 mg/kg) group; (3) APP/PS1 + Memantine (Mem, 5 mg/kg) group; (4) APP/PS1 + Donepezil (Done, 1.3 mg/kg, once daily) group; (5) Two‐month‐old C57BL/6J mice as a control group. The APP/PS1 mice were administered drugs twice a day (Done, once daily) by gastric gavage from ages 2 to 8 months for 6 months successively. Control and vehicle groups received equal volumes of saline.
as §1, §2, §3

[1] = test system: experimental subarachnoid hemorrhage models; parameters: method as in Luo et al., 2019; conditions: ref Luo et al., 2019; cited from earlier work
[2] = pharmacokinetic analysis of MN-08 in rats; assay type: in vivo; conditions: both sexes, rat, plasma, po; for Cmax: read-out: Cmax, peak concentration; for half-life: read-out: T1/2, mean terminal half-life (converted); for Tmax: read-out: Tmax, mean time to peak
Description: Healthy adult rats were cannulated under anesthesia one day before dosing, then randomly categorized into 3 groups (3 males and 3 females for each group): (1) MN-08 (3 mg/kg) group; (2) MN-08 (12 mg/kg) group; (3) MN-08 (24 mg/kg) group. Following single administration of MN-08 by gastric gavage, plasma samples (approximately 150 μL) were collected at different time points (Pre-dose and 0.25, 0.5, 1, 2, 4, 8, 12, 24 h after dose). The blood samples were placed in heparinized tubes and centrifuged at 3000 rpm for 10 min. The supernatant plasma was stored at -80°C until analysis. The concentration of MN-08 in blood samples was analyzed by the LC-MS/MS method as previously described (Tian et al., 2016).

normal rats = test system: normal rats; parameters: method as in Luo et al., 2019; conditions: ref Luo et al., 2019; cited from earlier work
intact narcotized rats = test system: intact narcotized rats; parameters: method as in Mirzoyan et al., 2014; conditions: intact narcotized rats and animals with global transient ischemia; ref Mirzoyan et al., 2014; cited from earlier work
[3] = single intragastric dose 3 mg/kg
[4] = single intragastric dose 12 mg/kg
[5] = single intragastric dose 24 mg/kg

Row | SMILES | step‐down latency (3×Tg‐AD mice; 4 months from 8 months of age) | discrimination index (NOR) (3×Tg‐AD mice; 4 months) | escape latency time (MWM) (3×Tg‐AD mice; 4 months) | number of crossings (MWM) (3×Tg‐AD mice; 4 months) | escape latency in Morris water maze test (APP/PS1 mice) | number of crossings in Morris water maze test (APP/PS1 mice) | discrimination index in novel object recognition (NOR) test (APP/PS1 mice; vs vehicle) | latency in step‐down avoidance (SDA) test (APP/PS1 mice; vs vehicle) | cerebral blood flow [1] | Cmax [2, 3] [ng/mL] | half-life [2, 3] [h] | Tmax [2, 3] [h] | Cmax [2, 4] [ng/mL] | half-life [2, 4] [h] | Tmax [2, 4] [h] | Cmax [2, 5] [ng/mL] | half-life [2, 5] [h] | Tmax [2, 5] [h] | blood pressure (normal rats) | local cerebral blood flow (CBF) in the brain cortices (intact narcotized rats)
1 | CCC12CC3CC(N)(C1)CC(CO[N+](=O)[O-])(C3)C2 (centres unmarked) [MN‐08] | significant increase | significant increase | significant reduction | significant increase | markedly shortened | increased | significantly increased | significantly increased | increase | 97.5 | 5.26 | 1.08 | 399 | 6.81 | 1.83 | 674 | 6.82 | 4 | does not, however, change | 
2 | CC12CC3CC(C)(C1)CC(N)(C3)C2 [memantine, 1‐amino‐3,5‐dimethyladamantane] |  |  |  |  |  |  |  |  |  |  |  |  |  |  |  |  |  |  |  | reduce
